Experimental findings from ChEMBL document CHEMBL1629637, “In vitro activities of tigecycline, minocycline, and colistin-tigecycline combination against multi- and pandrug-resistant clinical isolates of Acinetobacter baumannii group” (Antimicrob Agents Chemother, 2009) are described below.

Values after ≈ are worked out from the molar mass of the structure shown.

The subject of data set [1] is Acinetobacter baumannii. The data set can be described thus: Antibacterial activity against colistin-susceptible Acinetobacter baumannii clinical isolates by broth microdilution method. Type of data set: functional. Background: In broth dilution the organism is exposed to a series of concentrations in liquid medium.
Data set [2] has as its system Acinetobacter baumannii. The data set can be described thus: Antibacterial activity against colistin-resistant Acinetobacter baumannii clinical isolates by broth microdilution method. Type of data set: functional.
Data set [3] deals with Acinetobacter baumannii. Put plainly: Antibacterial activity against colistin-susceptible Acinetobacter baumannii clinical isolates assessed as percent susceptible isolates by broth microdilution method. Type of data set: functional.
In data set [4] the test system is Acinetobacter baumannii. Put plainly: Antibacterial activity against colistin-resistant Acinetobacter baumannii clinical isolates assessed as percent susceptible isolates by broth microdilution method. Format: functional.
Data set [5] relates to Acinetobacter baumannii. Put plainly: Antibacterial activity against all antibiotic-resistant Acinetobacter baumannii clinical isolates assessed as percent susceptible isolates by broth microdilution method. Format: functional.
Data set [6] has as its system Acinetobacter baumannii. Put plainly: Antibacterial activity against extensively drug-resistant Acinetobacter baumannii clinical isolates assessed as percent susceptible isolates by broth microdilution method. Type of data set: functional.
Data set [7] relates to Acinetobacter baumannii. The data set can be described thus: Antibacterial activity against imipenem-susceptible Acinetobacter baumannii clinical isolates assessed as percent susceptible isolates by broth microdilution method. Format: functional.
Data set [8] can be described thus: Cmax in human serum at […], iv bolus dose followed by dose regimen of […] every 12 hrs. Format: ADME, organism-based. Set-up: route intravenous.
Data set [9] concerns Acinetobacter baumannii. Put plainly: Antibacterial activity against pandrug-resistant Acinetobacter baumannii clinical isolates by broth microdilution method. Format: functional.
Data set [10] deals with Acinetobacter baumannii. Put plainly: Antibacterial activity against extensively drug-resistant Acinetobacter baumannii clinical isolates by broth microdilution method. Format: functional.
The test system of data set [11] is Acinetobacter baumannii. Put plainly: Antibacterial activity against imipenem-susceptible Acinetobacter baumannii clinical isolates by broth microdilution method. Format: functional.
The mark [12] stands for this setting: Acinetobacter baumannii, read-out: MIC90.

Turning to `CN(C)c1ccc(O)c2c1C[C@H]1C[C@H]3[C@H](N(C)C)C(O)=C(C(N)=O)C(=O)[C@@]3(O)C(O)=C1C2=O` [MINOCYCLINE], the MIC50 (usually an inhibitory concentration at the 50% level, which refers to growth in some studies and to a panel of isolates in others) was determined as 8 µg/mL (≈ 17.5 µM) in [1], 8 µg/mL (≈ 17.5 µM) in data set [5], 8 µg/mL (≈ 17.5 µM) in data set [6] and 4 µg/mL (≈ 8.74 µM) in data set [7]. The MIC90 (commonly the lowest concentration that inhibits either 90% of growth or 90% of the strains tested, depending on the study) was 8 µg/mL (≈ 17.5 µM) in [2]; 16 µg/mL (≈ 35 µM) in [2] (setting [12]); 16 µg/mL (≈ 35 µM) in [5]; 16 µg/mL (≈ 35 µM) in data set [6]; 8 µg/mL (≈ 17.5 µM) in [7]. For the same molecule, the Activity is given as 18% in data set [3] and 49.4% in [4].
In the case of `CN(C)c1cc(NC(=O)CNC(C)(C)C)c(O)c2c1C[C@H]1C[C@H]3[C@H](N(C)C)C(O)=C(C(N)=O)C(=O)[C@@]3(O)C(O)=C1C2=O` [TIGECYCLINE], the MIC50 in data set [1], in [9], in data set [10] and in data set [11] was 1 µg/mL (≈ 1.71 µM) in each case. The MIC90 in data set [2] (setting [12]), in [9], in [10] and in data set [11] was 2 µg/mL (≈ 3.41 µM) each time. Besides, the highest level in [8] (Cmax) was 630 ng/mL.
